Measured values published in patent US20160237160A1, “ANTI-TWEAKR ANTIBODIES AND USES THEREOF” (BAYER PHARMA AKTIENGESELLSCHAFT, priority 2013, published 2016).
Where two headings read alike, the source gives them in different places.

How the values were obtained:
[1] = tested on: Co5676 patient-derived colorectal cancer model; assay: Xenograft anti-tumor efficacy; type: in vivo, mice; conditions: tumor area, TPP-2090 10 mg/kg twice weekly for 4 weeks
Method: (§1) After tumor growth to a size of approximately 40 mm^2 mice were randomized into control and treatment groups with a respective group size of n=8-10. Mice were treated with various doses of anti-TWEAKR antibodies diluted in PBS by intravenous injection (i.v.) into the tail vein with a twice per week schedule (q4dx3: applications twice per week, three applications in total; q4dx8: applications twice per week, eight applications in total). Combination therapy partners such as Regorafenib (10 mg/kg daily, per os) and the PI3K-inhibitor 1 (10 mg/kg, BID, 2d on, 5d off (applications twice daily on two consecutive days, followed by five days without treatment), i.v.) were diluted in their respective formulations whereas the standard of care therapies Irinotecan (5 mg/kg, 4d on, 3d off (applications once daily on four consecutive days followed by three days without treatment) i.v.) and Paclitaxel (16 mg/kg, q7dx4 (applications once per week, four applications in total), i.v.) were diluted in 0.9% NaCl. Animals injected with PBS served as the control (vehicle) group. The applied volume of the compounds was 5 ml/kg body weight per mouse.
(§2) Tumor growth was monitored 2-3 times per week by caliper measurement (length×width in mm) as well as body weight (in g). At the end of study tumors were dissected, weighted and used for the calculation of tumor-to-control (T/C) ratios (mean tumor weight of treated animals divided by mean tumor weight of control/vehicle animals). […] 2×10^6 tumor cells in 100% Matrigel were s.c. inoculated in female nude mice. After 7d established tumors with a size of about 40 mm^2 were treated with 0.3 mg/kg, 1 mg/kg and 3 mg/kg of antibodies (i.v., q4dx3: applications twice per week, three applications in total).
(§3) Animal studies were conducted as described in example 8 for further human colorectal cancer tumor cell lines Colo205 and LoVo and for further human colorectal cancer patient-derived models Co7553, Co5896, Co5676, Co5841, CXF 1103 and CXF 533. […] The formulation of regorafenib is described in example 8.

[2] = tested on: CXF533 patient-derived colorectal cancer model; assay: Xenograft anti-tumor efficacy; type: in vivo, mice; conditions: tumor weight, TPP-2090 10 mg/kg twice weekly for 4 weeks
Method: as §1, §2, §3

[3] = tested on: CXF1103 patient-derived colorectal cancer model; assay: Xenograft anti-tumor efficacy; type: in vivo, mice; conditions: tumor weight, TPP-2090 10 mg/kg twice weekly for 4 weeks
Method: as §1, §2, §3

[4] = tested on: Co5841 patient-derived colorectal cancer model; assay: Xenograft anti-tumor efficacy; type: in vivo, mice; conditions: tumor weight, TPP-2090 10 mg/kg twice weekly for 4 weeks
Method: as §1, §2, §3

[5] = tested on: LoVo xenograft (colorectal cancer); assay: Xenograft anti-tumor efficacy; type: in vivo, mice; conditions: tumor weight, TPP-2090 10 mg/kg twice weekly for 4 weeks
Method: as §1, §2, §3

[6] = tested on: Colo205 xenograft (colorectal cancer); assay: Xenograft anti-tumor efficacy; type: in vivo, mice; conditions: tumor weight, TPP-2090 10 mg/kg twice weekly for 4 weeks
Method: as §1, §2, §3

[7] = tested on: Co7553 patient-derived colorectal cancer model; assay: Xenograft anti-tumor efficacy; type: in vivo, mice; conditions: tumor weight, TPP-2090 10 mg/kg twice weekly for 4 weeks
Source text: Tumor growth was monitored 2-3 times per week by caliper measurement (length×width in mm) as well as body weight (in g). […]

[8] = target: T1, TWEAKR(34-68)-Fc fusion protein (TPP-2203) (Homo sapiens, UniProt Q9NP84); assay: ELISA with TWEAKR cysteine rich domain; type: binding; conditions: coating 1 μg/ml; 0.08 and 0.3 μg/ml biotinylated IgG
T1 construct: the truncated ectodomain 34-68 were expressed and purified as Fc fusion proteins; made in house
Source text: (§4) In a first approach to characterize the binding epitope of the aforementioned antibodies, a N- and C-terminal truncation mutant of the TWEAKR ectodomain was generated and tested for its ability to bind to the different anti-TWEAKR antibodies. N-terminally, amino acids 28 to 33 and C-terminally amino acids 69 to 80 were deleted, thus the cysteine rich domain with disulfide bridges between Cys36-Cys49, Cys52-Cys67 and Cys55-Cys64 remains intact (compare FIG. 2). Both constructs, the full ectodomain 28-80 including the N- and C-terminus and the truncated ectodomain 34-68 were expressed and purified as Fc fusion proteins TPP-2202 and TPP-2203, respectively.
(§5) To analyze for binding, 1 μg/ml of the respective dimeric TWEAKR-Fc construct were coated and, 0.3 μg/ml and 0.08 μg/ml of biotinylated IgG were used as soluble binding partner. Detection was done with Streptavidin-HRP and Amplex-Red substrate. IgGs were biotinylated using an approximately 2-fold molar excess of biotin-LC-NHS (Pierce; Cat. No. 21347) according to manufacturer's instructions and desalted using Zeba desalting columns (Pierce; Cat. No. 89889).

[9] = target: T2, TWEAKR-Fc fusion protein (TPP-2202), aa 28-80 (Homo sapiens, UniProt Q9NP84); assay: ELISA with TWEAKR full ectodomain; type: binding; conditions: coating 1 μg/ml; 0.08 and 0.3 μg/ml biotinylated IgG
T2 construct: the full ectodomain 28-80 including the N- and C-terminus; made in house
Source text: as §4, §5

[10] = target: T3, TWEAKR protein (TPP-2305) (Homo sapiens, UniProt Q9NP84); assay: Biacore monovalent KD with TWEAKR protein; type: binding; conditions: first order 1:1 binding model
T3 construct: TPP-2305; hTNFRSF12Aaa28-80; Human; 30R-AT080; 168; purchased Fitzgerald Inc 30R-AT080
Method: Binding affinities of anti-TWEAKR antibodies were determined by surface plasmon resonance analysis on a Biacore T100 instrument (GE Healthcare Biacore, Inc.). Antibodies were immobilized onto a CM5 sensor chip through an indirect capturing reagent, anti-human IgG(Fc). Reagents from the “Human Antibody Capture Kit” (BR-1008-39, GE Healthcare Biacore, Inc.) were used as described by the manufacturer. Anti-TWEAKR antibodies were injected at a concentration of 10 μg/ml at 10 μl/min for 10 sec.
Sensorgrams were generated after in-line reference cell correction followed by buffer sample subtraction. The dissociation equilibrium constant (KD) was calculated based on the ratio of association (kon) and dissociation rated (koff) constants, obtained by fitting sensorgrams with a first order 1:1 binding model.

[11] = target: TWEAKR (Homo sapiens, UniProt Q9NP84); conditions: published data, read-out: KD / binding affinity to TWEAKR (published), cited from earlier work
[12] = target: T4, TWEAKR(28-68)-HIS (TPP-1984) (Homo sapiens, UniProt Q9NP84); assay: ELISA with C-terminally truncated TWEAKR ectodomain; type: binding; conditions: coating 1 μg/ml; 0.08 and 0.3 μg/ml biotinylated IgG
T4 construct: Extracellular domain with C-terminal truncation (28-68) fused to HIS6 tag; made in house
Method: as §5

[13] = tested on: Lovo cells; assay: Inhibition of proliferation (Cell Titer Glo); type: cell-based, human; conditions: 72h, 100 μg/ml antibody or *100 ng/ml TWEAK
Method: (§6) Therefore cells were plated in 96well plates in 750 assay medium (growth media from Table 21, plus 100 ng/ml IFN gamma for 786-O cells) at the following cell numbers: WiDr cells 3000 cells/well, 786-O cells 2500 cells/well. 24 h later cells were incubated with anti-TWEAKR antibodies (see Table 26), recombinant human TWEAK or isotype control IgG (not shown) at the indicated concentrations (antibodies from 0.03-300 μg/ml, TWEAK 100 or 300 ng/ml). At the time of antibody addition cell viability was determined in sister plates (time point zero): therefore 750/well CTG solution (Promega Cell Titer Glo solution (catalog # G755B and G756B) was added to the cells, incubated for 10 minutes and luminescence was read on a Victor V (Perkin Elmer). 96 h after incubation with the agents, cell viability was determined in the assay plates by addition of 100 μl/well CTG solution, 10 min incubation and reading of luminescence. Proliferation in control wells was calculated by subtracting time zero values from the luminescence values in the untreated control wells. % of cell proliferation was calculated in the compound treated wells as compared to the untreated control wells.
(§7) To evaluate, whether this strong anti-proliferative activity can also be observed in a broader cell panel, in addition LOVO, NCI-H1975, SW-480 (all 3000 cells/well), HT-29 (4000 cells/well), A253 and SK-OV3 (both 2500 cells/well) cells were incubated with 100 μg/ml anti-TWEAKR antibodies or TWEAK ligand for the time periods as indicated in Table 27. All cells were seeded in the growth media indicated in Table 21 and for all cells except for WiDr cells 100 ng/ml IFNgamma was added to the assay medium when seeding the cells. The percentage of growth inhibition for treated cells as compared to proliferation in untreated control cells was measured and calculated as described above. As shown in Table 27 the antibodies of the current invention are more efficacious as compared to other known antibodies in inhibiting proliferation of various cancer cell lines at 100 μg/ml. In most experiments the antibodies of the current invention also show equal or stronger efficacy as compared to 100-300 ng/ml TWEAK ligand. Thus, the antibodies described in this invention are unique in their activity to induce apoptosis and proliferation inhibition in a broad panel of cancer cell lines.

[14] = tested on: NCI-H1975 cells; assay: Inhibition of proliferation (Cell Titer Glo); type: cell-based, human; conditions: 72h, 100 μg/ml antibody or *100 ng/ml TWEAK
Method: as §6, §7

[15] = tested on: SW480 cells; assay: Inhibition of proliferation (Cell Titer Glo); type: cell-based, human; conditions: 72h, 100 μg/ml antibody or *100 ng/ml TWEAK
Method: as §6, §7

Row | Molecule | Final T/C [1] | Final T/C [2] | Final T/C [3] | Final T/C [4] | Final T/C [5] | Final T/C [6] | Final T/C [7] | ELISA binding to N- and C-terminally truncated construct (34-68) [8] | ELISA binding to full ectodomain (28-80) [9] | ka [10] [M⁻¹ s⁻¹] | kd [10] [s⁻¹] | Kd ([11]; listed as BIIB036/P4A8) [nM] | Kd [11] [nM] | ELISA binding to C-terminally truncated ectodomain (28-68) [12] | % Inhibition of proliferation [13] [%] | % Inhibition of proliferation [14] [%] | % Inhibition of proliferation [15] [%]
1 | O=c1[nH]cc(F)c(=O)[nH]1 [5-FU, 5-fluorouracil] | 0.45 | 0.28 | 0.97 | 0.48 |  |  |  |  |  |  |  |  |  |  |  |  | 
2 | CCc1c2c(nc3ccc(OC(=O)N4CCC(N5CCCCC5)CC4)cc13)-c1cc3c(c(=O)n1C2)COC(=O)[C@]3(O)CC [Irinotecan] | 0.37 |  | 0.66 | 0.17 | 0.52 | 0.47 | 0.11 |  |  |  |  |  |  |  |  |  | 
3 | O=C1[O][Pt]2([NH][C@@H]3CCCC[C@H]3[NH]2)[O]C1=O [Oxaliplatin, oxaliplatin] |  | 1.08 | 1.29 | 0.81 | 0.76 | 0.89 | 0.78 |  |  |  |  |  |  |  |  |  | 
4 | P4A8(TPP-1324): reference agonistic anti-TWEAKR antibody, human IgG1, variable domains from WO2009/140177; SEQ ID NO 125/126 [reference compound] |  |  |  |  |  |  |  | impaired binding | saturated binding | 1.2e+06 | 0.0027 | 1.7 | 2.6 | impaired binding | −5 | 20 | 5
